The results in this text go back to patent US8410068B2, “Compounds for the treatment or alleviation of edema, and methods for their use” (Index Pharmaceuticals AB, priority 2007, dated 2013).

Data set [1] concerns arachidonic acid (AA) induced ear edema. Description: Arachidonic acid (AA) induced ear edema model. In kind it is in vivo, mice. To be noted: for AUC reduction (%) AA: 10 μg one single s.c. injection 20 minutes before AA, compared to PBS control; for Peak reduction (%) AA: 10 μg subcutaneously 20 minutes before induction of edema. As to the method:
A stock solution of AA was prepared by diluting AA in acetone, 4 mg/10 μL, and was stored frozen at −80° C. A final working solution, 1 mg/10 μL, in acetone was prepared. The working solution was used within one hour after preparation.
(§1) Both outer ears of a non-anesthetized mouse were washed with mild soap (Palmolive, Sweden) using a soft tooth brush, the ears were dried with tissue and cleaned with tissue soaked with acetone. After allowing the acetone to evaporate, TPA or AA was applied on both sides, 10 μL, on each side of the ear with care to cover the whole ear. The mouse was held for 20 seconds to allow the solvent to evaporate.
(§2) The ears of non-anesthetized mice were measured at different time points for up to 96 hours after the TPA was administered, or up to 24 hours for the AA model. The first measurements were done before the edema was induced. The thickness was recorded with a spring loaded dial micrometer (Limit, Thickness Gauge, accuracy 0.01 mm, contact area Ø6 mm, Luna AB, Allingsås, Sweden) in triplicates at all time points per ear.
(§3) The average thickness for both ears on a mouse was calculated and compared to the average thickness of the ears at the starting time point. The value obtained at the start of the experiment was set as 100%. The peak values and area under the curve (AUC) values for the treatment groups were calculated and compared to the inflamed control group, treated with PBS (set as 100%), and expressed as a percentage change (Δ% AUC).
(§4) Area under the curve (AUC) with base line set as 100 was calculated using GraphPad Prism version 4.03 for Windows (GraphPad Software, San Diego Calif. USA, www.graphpad.com).
In addition to the experiments done with the control compounds and IDX0001, all other test compounds were investigated in a similar fashion in the TPA and/or AA ear edema models, where the test compounds were given subcutaneously (10 μg) 20 minutes before induction of edema. The results were expressed as reduction of peak value and reduction of area under curve (AUC) in Table 5.

Data set [2] concerns tetradecanoylphorbol 13-acetate (TPA) induced ear edema. The data set is described as follows: TPA-induced ear edema model. In kind it is in vivo, mice. The note with it: for Differences in AUC: Study L dose response; for Reduction of AUC compared to PBS: Study A / FIG. 1, one single injection (i.p. in Study A, s.c. in FIG. 1) 20 min before TPA, day 0; for AUC reduced: Study J; for AUC reduction (%) TPA: 10 μg one single s.c. injection 20 minutes before TPA, compared to PBS control; for Peak reduction (%) TPA: 10 μg subcutaneously 20 minutes before induction of edema. Here is the method:
A stock solution of TPA was prepared by dissolving TPA in DMSO, 1 mg/mL, and was stored frozen at −80° C. For study B-E, a working solution was prepared with 200 μL of the TPA stock solution added to 800 μL acetone. The working solution was used the same day as it was prepared.
Each cage was identified by a cage card marked with study number, group number, ethical approval number, sex and animal ear numbers. The animals were individually marked on the tail with transverse lines corresponding to the animals' number, using a permanent-ink felt pen. An illustration of the protocols used for the different treatments is outlined in Table 4. The compounds were tested according to the same protocols with necessary modifications.
Intraperitoneal (i.p.) injections were performed by giving 100 μL in the lower right quadrant of the abdomen. Subcutaneous injections were done with 100 μL in the neck region. Intranasal administration was performed by letting the mouse inhale droplets into the nostrils, total volume 40 μL. All administrations were done on non-anesthetized mice.
as §1
Intraperitoneal injections were given in the lower right quadrant of the abdomen with the animal held in a supine position. Subcutaneous (s.c.) injections were given in the neck of the animals. Intranasal administrations were given to mice held in a slightly reclining position. With an adjustable micro-pipette 40 μL of the test substance was given in droplets on the nostrils and the mouse was allowed to aspirate at free will.
as §2, §3, §4
AUC reduction and P-values were calculated against the positive control (TPA or AA+PBS).

The mark [3] stands for this setting: Study B, 100 μg s.c. 4 days before induction of edema.
[4] abbreviates: Study C (repeat of B), 100 μg s.c. 4 days before induction of edema.
[5] abbreviates: Study D, 100 μg s.c. 2 days before induction of edema.
[6] abbreviates: Study E, 100 μg s.c. same day, approx. 20 min before induction.
Setting [7] is: Study F, equal doses 50 μg s.c. same day as swelling induced.
Where [8] appears, read: Study G, therapeutic, 100 μg s.c. 2 hours after induction of edema.
Where [9] appears, read: Study H, 100 μg intranasal 4 days before swelling induced.
Setting [10] is: Study I, 100 μg intranasal day 0, same day as edema induced.
The mark [11] stands for this setting: therapeutic, 100 μg intranasal 2 hours after induction.

For `O=C1CCN(c2ccccc2)N1` [Phenidone], the “reduction of AUC” value in data set [1] (FIG. 4, phenidone given 30 min before AA, IDX0150 given 20 min before AA) was −39.1%.
As for “G*G*A*A*C*A*G*T*T*C*G*T*C*C*A*T*G*G*C (as printed in the source, key not given here) [IDX0500]”, the “reduction of AUC” value was −15% in data set [2] (Study N, 0.005 μg, one single i.n. (Table 4) day 0); −15.3% in data set [2] (Study N, 0.01 μg, one single i.n. (Table 4) day 0); −18.2% in data set [2] (Study N, 0.1 μg, one single i.n. (Table 4) day 0); −54.1% in data set [2] (Study N, 1 μg, one single i.n. (Table 4) day 0); −25.5% in data set [2] (Study O, 10 μg given s.c. on day 0 (Table 4: i.n.)).
In the case of “G*G*A*ACAGTTGCTCCAT*G*G*C (as printed in the source, key not given here) [IDX0526, negative control, having the CpG motif substituted with a GC]”, the “Differences in AUC” value is “+1.24%” in data set [2] (0.1 μg, one single i.n. (Table 4) day 0) and “+6.18%” in data set [2] (100 μg, one single i.n. (Table 4) day 0). Also, in data set [2] (Study L, 0.1-100 μg), the anti-swelling activity entry was “no anti-swelling activity”.
Take “G*G*G*GAACAGTTCGTCCAT*G*G*C (phosphorothioate linkages, as printed in the source, key not given here) [IDX0955, oligonucleotide used as control; * = phosphorothioate modification]”: in data set [2] (100 μg), the “Reduction of AUC compared to PBS” value is recorded as −4.8%. Moreover, the “reduction of AUC” value in data set [2] (setting [3]) is reported as −22.7%; in data set [2] (setting [4]) it was −24.3%; in data set [2] (setting [5]), −17.8%; in data set [2] (setting [6]) it was −17.7%; in data set [2] (setting [7]), −18.3%; in data set [2] (setting [8]), −40.7%. Besides, the “reduction of AUC” value in data set [2] (setting [9]) is listed as −17.4%; in data set [2] (setting [10]), −28.8%. The AUC reduced in data set [2] (setting [11]) is recorded as −17.2%.
With “G*G*G*GCGTCTGCC*G*G*G (GGGGCGTCTGCCGGG; DNA, linkages s3 o8 s3 (s phosphorothioate, o phosphodiester), methylation of C not given here) [IDX9051, oligonucleotide; * = phosphorothioate modification]”, in data set [1], the “AUC reduction (%) AA” value is −67.5% and the “Peak reduction (%) AA” value is −17.7%. In data set [2], the “AUC reduction (%) TPA” value was −54.0% and the “Peak reduction (%) TPA” value is −29.5%.
Take “T*C*C*A*T*G*A*C*G*T*T*C*C*T*G*A*C*G*T*T [IDX0920]”: the “Reduction of AUC compared to PBS” value in data set [2] (50 μg) was −22.1%. Further, the “reduction of AUC” value in data set [2] (Study B, 50 μg s.c. 4 days before induction of edema) was −19.3%; in data set [2] (Study C (repeat of B), 50 μg s.c. 4 days before induction of edema), −3%; in data set [2] (Study D, 50 μg s.c. 2 days before induction of edema), −19.1%; in data set [2] (Study E, 50 μg s.c. same day, approx. 20 min before induction), −19.4%; in data set [2] (setting [7]) it was −17%; in data set [2] (Study G, therapeutic, 50 μg s.c. 2 hours after induction of edema) it was −43.8%. Also, the “reduction of AUC” value is reported as −33.8% in data set [2] (Study H, 50 μg intranasal 4 days before swelling induced) and −27.3% in data set [2] (Study I, 50 μg intranasal day 0, same day as edema induced). The AUC reduced in data set [2] (therapeutic, 50 μg intranasal 2 hours after induction) was −28.7%.
For the compound “T*C*C*ATGGTCAGGGTCCCGG*G*G*G (TCCATGGTCAGGGTCCCGGGGG; DNA, linkages s3 o15 s3 (s phosphorothioate, o phosphodiester), methylation of C not given here) [IDX9064, oligonucleotide; * = phosphorothioate modification]”, in data set [2], the “AUC reduction (%) TPA” value is reported as −59.7% and the “Peak reduction (%) TPA” value is −41.7%.
“T*C*C*CAAGATCGTCC*A*G*G (phosphorothioate linkages, as printed in the source, key not given here) [IDX9076, oligonucleotide; * = phosphorothioate modification]”: in data set [1], the “AUC reduction (%) AA” value is −45.7% and the “Peak reduction (%) AA” value is −20.1%. Besides, in data set [2], the “AUC reduction (%) TPA” value was −5.1% and the “Peak reduction (%) TPA” value is −2.6%.
Taken in the same sequence, the figures for “T*C*C*GATCGTCC*A*G*G (TCCGATCGTCCAGG; DNA, linkages s3 o7 s3 (s phosphorothioate, o phosphodiester), methylation of C not given here) [IDX9078]” were −79.4%, −16.4%, −41.3% and −26.1%.
“T*C*C*GCGTTCGGCCTCCTGGCG*C*G*G (phosphorothioate linkages, as printed in the source, key not given here) [IDX0001, oligonucleotide; * = phosphorothioate modification]”: the “Reduction of AUC compared to PBS” value in data set [2] (100 μg) was −15.7%. Moreover, the “reduction of AUC” value in data set [2] (setting [3]) is given as −16.3%; in data set [2] (setting [4]), −17.9%; in data set [2] (setting [5]) it was −12.4%; in data set [2] (setting [6]), −16.7%; in data set [2] (setting [7]) it was −13.2%; in data set [2] (setting [8]) it was −17.9%. In addition, the “reduction of AUC” value in data set [2] (setting [9]) is on record as −25.7%; in data set [2] (setting [10]), −6.4%. The AUC reduced in data set [2] (setting [11]) is given as −25.2%.
As for “T*C*G*TCTGCTTAGTTCGTTA*G*T*T (TCGTCTGCTTAGTTCGTTAGTT; DNA, linkages s3 o15 s3 (s phosphorothioate, o phosphodiester), methylation of C not given here) [IDX9087]”, in data set [2], the “AUC reduction (%) TPA” value is on record as −40.2% and the “Peak reduction (%) TPA” value is given as “+0.9%”.
As for “T*G*C*CATTCGTCGTTCTCGTC*G*T*T (phosphorothioate linkages, as printed in the source, key not given here) [IDX9024, oligonucleotide; * = phosphorothioate modification]”, in data set [1], the “AUC reduction (%) AA” value is given as −58.5% and the “Peak reduction (%) AA” value is listed as −14.4%. Besides, in data set [2], the “AUC reduction (%) TPA” value is given as −47.3% and the “Peak reduction (%) TPA” value is given as −30.9%.
